Here are results for nine molecules from patent US11827616B2, “Heterocyclic compounds as pesticides” (Discovery Purchaser Corporation, priority 2018, dated 2023).

SMILES strings stand for the structures. Read-outs that look alike come from different tables or passages of the source.

Common to all, as to type: in vivo
Test [1] concerns Anopheles gambiae strain RSPH (homozygot kdr). Briefly: Anopheles test (ANPHGB surface treatment). Conditions: read-out: efficacy (mortality in %). The procedure:
Anopheles Test (ANPHGB Surface Treatment)
(§1) Solvent: acetone+2000 ppm rapeseed oil methyl ester (RME)
To produce an appropriate active compound formulation, the active compound is dissolved in the solvent (2 mg/ml). The active compound formulation is pipetted onto a glazed tile and, after it has dried off, adult mosquitoes of the species Anopheles gambiae strain RSPH (homozygot kdr) are placed onto the treated tile. The exposure time is 30 minutes.
(§2) 24 hours after contact with the treated surface, mortality in % is determined. 100% means that all mosquitoes have been killed; 0% means that none of the mosquitoes have been killed.

Test [2] has as its system Anopheles funestus strain FUMOZ-R. In words: Anopheles test (ANPHFU surface treatment). Conditions: read-out: efficacy (mortality in %). As for the experimental part:
Anopheles Test (ANPHFU Surface Treatment)
as §1
To produce an appropriate active compound formulation, the active compound is dissolved in the solvent (2 mg/ml). The active compound formulation is pipetted onto a glazed tile and, after it has dried off, adult mosquitoes of the species Anopheles funestus strain FUMOZ-R (Hunt et al., Med Vet Entomol. 2005 Sep.; 19 (3):271-5) are placed onto the treated tile. The exposure time is 30 minutes.
as §2

In test [3] the test system is Aedes aegypti strain MONHEIM. Briefly: Aedes test (AEDSAE surface treatment). The following applies: read-out: efficacy (mortality in %). As for the experimental part:
Aedes Test (AEDSAE Surface Treatment)
as §1
To produce an appropriate active compound formulation, the active compound is dissolved in the solvent (2 mg/ml). The active compound formulation is pipetted onto a glazed tile and, after it has dried off, adult mosquitoes of the species Aedes aegypti strain MONHEIM are placed onto the treated tile. The exposure time is 30 minutes. 24 hours after contact with the treated surface, mortality in % is determined. 100% means that all mosquitoes have been killed; 0% means that none of the mosquitoes have been killed.

For the next test, the system named is Boophilus microplus. Briefly: Boophilus microplus injection test. The following applies: for pest or weed control at 0.02 mg: Rhipicephalus microplus, 168 h. The procedure:
Boophilus microplus—Injection Test
(§3) Solvent: dimethyl sulfoxide
To produce a suitable active compound formulation, 10 mg of active compound are mixed with 0.5 ml of solvent and the concentrate is diluted to the desired concentration with solvent.
1 μl of the active compound solution is injected into the abdomen of 5 engorged adult female cattle ticks (Boophilus microplus). The animals are transferred into dishes and kept in a climate-controlled room.
Efficacy is assessed after 7 days by laying of fertile eggs. Eggs which are not visibly fertile are stored in a climate-controlled cabinet until the larvae hatch after about 42 days. An efficacy of 100% means that none of the ticks has laid any fertile eggs; 0% means that all the eggs are fertile.

The next test has as its system Lucilia cuprina. Briefly: Lucilia cuprina test. The following applies: application rate 100 ppm; L1 larvae; after 2 days. As for the experimental part:
as §3
To produce a suitable active compound formulation, 10 mg of active compound are mixed with 0.5 ml of dimethyl sulfoxide, and the concentrate is diluted with water to the desired concentration.
About 20 L1 larvae of the Australian sheep blowfly (Lucilia cuprina) are transferred into a test vessel containing minced horsemeat and the active compound formulation of the desired concentration.
After 2 days, the kill in % is determined. 100% means that all the larvae have been killed; 0% means that no larvae have been killed.

A further test concerns Phaedon cochleariae. Briefly: Phaedon cochleariae spray test. The following applies: for pest or weed control at 500 g/ha: Phaedon cochleariae, 168 h, read-out: efficacy. As for the experimental part:
Phaedon cochleariae—Spray Test
(§4) Solvent: 78.0 parts by weight of acetone • • 1.5 parts by weight of dimethylformamide
(§5) Emulsifier: alkylaryl polyglycol ether
(§6) To produce a suitable active compound formulation, 1 part by weight of active compound is dissolved with the specified parts by weight of solvent and made up to the desired concentration with water containing an emulsifier concentration of 1000 ppm. To produce further test concentrations, the formulation is diluted with emulsifier-containing water.
Discs of Chinese cabbage leaves (Brassica pekinensis) are sprayed with an active compound formulation of the desired concentration and, after drying, populated with larvae of the mustard beetle (Phaedon cochleariae).
After 7 days, the efficacy in % is determined. 100% means that all the beetle larvae have been killed; 0% means that no beetle larvae have been killed.

In a further test the test system is Spodoptera frugiperda. In words: Spodoptera frugiperda spray test. The following applies: for pest or weed control at 500 g/ha: Spodoptera frugiperda, 168 h, read-out: efficacy. The procedure: Spodoptera frugiperda—Spray Test
as §4, §5, §6
Leaf discs of maize (Zea mays) are sprayed with an active compound formulation of the desired concentration and, after drying, populated with caterpillars of the fall armyworm (Spodoptera frugiperda).
After 7 days, the efficacy in % is determined. 100% means that all the caterpillars have been killed; 0% means that no caterpillar has been killed.

Test [4] has as its system Ctenocephalides felis. In words: Ctenocephalides felis in vitro contact test with adult cat fleas. The following applies: application rate 5 μg/cm^2 (=500 g/ha); after 48 h. The procedure:
Ctenocephalides felis—In Vitro Contact Tests with Adult Cat Fleas
(§7) For the coating of the test tubes, 9 mg of active compound are first dissolved in 1 ml of acetone p.a. and then diluted to the desired concentration with acetone p.a. 250 μl of the solution are distributed homogeneously on the inner walls and the base of a 25 ml glass tube by turning and rocking on an orbital shaker (rocking rotation at 30 rpm for 2 h). With 900 ppm of active compound solution and internal surface area 44.7 cm^2, given homogeneous distribution, an area-based dose of 5 μg/cm^2 is achieved.
After the solvent has evaporated off, the tubes are populated with 5-10 adult cat fleas (Ctenocephalides felis), sealed with a perforated plastic lid and incubated in a horizontal position at room temperature and ambient humidity. After 48 h, efficacy is determined. To this end, the tubes are stood upright and the fleas are knocked to the base of the tube. Fleas which remain motionless at the base or move in an uncoordinated manner are considered to be dead or moribund.
100% efficacy means that all the fleas were dead or moribund. 0% efficacy means that no fleas were harmed.

Another test relates to Rhipicephalus sanguineus. In words: Rhipicephalus sanguineus in vitro contact test with adult brown dog ticks. Conditions: application rate 5 μg/cm^2 (=500 g/ha); after 48 h. The procedure: Rhipicephalus sanguineus—In Vitro Contact Tests with Adult Brown Dog Ticks
as §7
After the solvent has evaporated off, the tubes are populated with 5-10 adult dog ticks (Rhipicephalus sanguineus), sealed with a perforated plastic lid and incubated in a horizontal position in the dark at room temperature and ambient humidity. After 48 h, efficacy is determined. To this end, the ticks are knocked to the base of the tube and incubated on a hotplate at 45-50° C. for not more than 5 min. Ticks which remain motionless on the base or move in such an uncoordinated manner that they are unable to deliberately avoid the heat by climbing upwards are considered to be dead or moribund.
An efficacy of 100% means that all the ticks were dead or moribund. 0% efficacy means that none of the ticks were harmed.

For test [5], the system named is Ctenocephalides felis. In words: Ctenocephalides felis oral test. The following applies: application rate 100 ppm in citrated cattle blood; after 2 days. As for the experimental part:
Ctenocephalides felis—Oral Test
as §3
To produce a suitable active compound formulation, 10 mg of active compound are mixed with 0.5 ml of dimethyl sulfoxide. Dilution with citrated cattle blood gives the desired concentration.
About 20 unfed adult cat fleas (Ctenocephalides felis) are placed into a chamber which is closed at the top and bottom with gauze. A metal cylinder whose bottom end is closed with parafilm is placed onto the chamber. The cylinder contains the blood/active compound formulation, which can be imbibed by the fleas through the parafilm membrane.
After 2 days, the kill in % is determined. 100% means that all of the fleas have been killed; 0% means that none of the fleas have been killed.

For a further test, the system named is Tetranychus urticae. Briefly: Tetranychus urticae spray test, OP-resistant. Conditions: application rate 500 g/ha; after 6 days. The procedure:
Tetranychus urticae—Spray Test, OP-Resistant
Solvent: 78.0 Parts by Weight of Acetone • • 1.5 parts by weight of dimethylformamide
as §5, §6
Discs of bean leaves (Phaseolus vulgaris) infested with all stages of the greenhouse red spider mite (Tetranychus urticae) are sprayed with an active compound formulation of the desired concentration.
After 6 days, the efficacy in % is determined. 100% means that all the spider mites have been killed; 0% means that no spider mites have been killed.

Setting [6] is: read-out: efficacy (laying of fertile eggs), application rate 20 μg/animal, after 7 days.
[7] abbreviates: application rate 20 μg/animal, after 7 days.
Setting [8] is: application rate 500 g/ha, after 7 days.
[9] abbreviates: application rate 20 mg/m^2, exposure 30 minutes, 24 hours after contact.

Take `CON(C)CCOc1ccc(COc2ccc(Cl)c3ccccc23)c(F)n1` [Example 3, 2-[(5-{[(4-chloro-1-naphthyl)oxy]methyl}-6-fluoropyridin-2-yl)oxy]-N-methoxy-N-methylethanamine]: the mortality at 20 mg/m2 in [1] and in test [2] was 80 to 100% throughout. The mortality at 100 mg/m2 in [1], in [2] and in test [3] was 80 to 100% in each case.
On to `N#CCN1CCC(Oc2ccc(COc3ccc(Cl)c4ccccc34)cn2)C1` (stereo not shown) [Example 5, {3-[(5-{[(4-chloro-1-naphthyl)oxy]methyl}pyridin-2-yl)oxy]pyrrolidin-1-yl}acetonitrile], for which the pest or weed control at 0.02 mg in the test on Boophilus microplus (setting [6]) is 100%. Moreover, the “efficacy (kill in %)” value in the test on Lucilia cuprina was determined as 100%. Besides, the figures for the pest or weed control at 500 g/ha with Phaedon cochleariae and with Spodoptera frugiperda were 100% and 83%, respectively. Moreover, the mortality at 20 mg/m2 in test [1] and in test [2] was 80 to 100% in each case. In addition, the mortality (commonly the percentage killed) at 100 mg/m2 in [1] lay within 80 to 100%.
Turning to `CON(C)CCOc1cnc(COc2ccc(Br)c3ccccc23)c(F)c1` [Example 21], the “efficacy (fleas dead or moribund)” value with Ctenocephalides felis [4] was 100%. The “efficacy (ticks dead or moribund)” value in the test with Rhipicephalus sanguineus stood at 100%. Moreover, in the test with Boophilus microplus (setting [7]), the “efficacy (laying of fertile eggs)” value is reported as 100%. Also, the “efficacy (kill in %)” value with Ctenocephalides felis [5] was found to be 80%; in the test with Lucilia cuprina, 100%. Moreover, the efficacy is recorded as 100% in the test on Phaedon cochleariae (setting [8]), 100% with Spodoptera frugiperda (setting [8]) and 90% in the test on Tetranychus urticae.
As to `CN(CC#N)CCOc1cnc(COc2ccc3oc4ccccc4c3c2)c(F)c1` [Example 29, {[2-({6-[(dibenzo[b,d]furan-2-yloxy)methyl]-5-fluoropyridin-3-yl}oxy)ethyl](methyl)amino}acetonitrile], the pest or weed control at 0.02 mg in the test on Boophilus microplus (setting [6]) worked out at 100%. Further, the “efficacy (kill in %)” value with Ctenocephalides felis [5] and in the test on Lucilia cuprina was 100% throughout. For the same molecule, the pest or weed control at 500 g/ha with Phaedon cochleariae and in the test with Spodoptera frugiperda was 100% throughout. Moreover, the mortality at 20 mg/m2 in [1] is 80 to 100%.
`CON(C)CCOc1cnc(COc2ccc(Cl)c(-c3ccccc3)c2)c(F)c1` [Example 63]: the “efficacy (fleas dead or moribund)” value in the test on Ctenocephalides felis [4] is recorded as 100%. For the same molecule, the “efficacy (ticks dead or moribund)” value in the test on Rhipicephalus sanguineus came to 100%. For the same molecule, in the test with Boophilus microplus (setting [7]), the “efficacy (laying of fertile eggs)” value turned out to be 100%. In addition, the “efficacy (kill in %)” value in the test on Ctenocephalides felis [5] turned out to be 95%; in the test with Lucilia cuprina, 100%. For the same molecule, the efficacy worked out at 100% with Phaedon cochleariae (application rate 100 g/ha, after 7 days); 100% in the test on Spodoptera frugiperda (setting [8]); 100% in the test with Tetranychus urticae.
As for `CON(C)CCOc1cnc(COc2ccc(F)c(-c3ccccc3)c2)c(F)c1` [Example 71, 2-[(5-fluoro-6-{[(6-fluorobiphenyl-3-yl)oxy]methyl}pyridin-3-yl)oxy]-N-methoxy-N-methylethanamine], the “efficacy (fleas dead or moribund)” value in the test with Ctenocephalides felis [4] is 100%. Further, the “efficacy (ticks dead or moribund)” value with Rhipicephalus sanguineus is reported as 100%. Besides, the pest or weed control at 0.02 mg in the test on Boophilus microplus (application rate 20 μg/animal, after 7 days, read-out: efficacy (laying of fertile eggs)) turned out to be 100%. Further, the “efficacy (kill in %)” value in the test with Lucilia cuprina was found to be 100%. Further, the values for the pest or weed control at 500 g/ha with Phaedon cochleariae (setting [8]) and in the test on Spodoptera frugiperda (setting [8]) were 83% and 100%, respectively. Also, the mortality at 20 mg/m2 in [1] (setting [9]), in test [2] (setting [9]) and in test [3] (setting [9]) was 80 to 100% each time.
As to `CON(C)CCOc1cnc(COc2ccc(Cl)c(OC(F)(F)F)c2)c(F)c1` [Example 72], in the test on Ctenocephalides felis [4], the “efficacy (fleas dead or moribund)” value was determined as 100%. In addition, in the test with Rhipicephalus sanguineus, the “efficacy (ticks dead or moribund)” value was 100%. In the test on Boophilus microplus (setting [7]), the “efficacy (laying of fertile eggs)” value came out at 100%. Moreover, the “efficacy (kill in %)” value with Ctenocephalides felis [5] came out at 95%; in the test on Lucilia cuprina it was 100%. The efficacy in the test with Spodoptera frugiperda (setting [8]) was found to be 83%; in the test with Tetranychus urticae, 100%.
For the molecule `COc1cc(OCCN(C)OC)cnc1COc1ccc2oc3ccccc3c2c1` [Example 90, 2-({6-[(dibenzo[b,d]furan-2-yloxy)methyl]-5-methoxypyridin-3-yl}oxy)-N-methoxy-N-methylethanamine], in the test on Boophilus microplus (setting [6]), the pest or weed control at 0.02 mg was 100%. Besides, the “efficacy (kill in %)” value in the test with Lucilia cuprina is listed as 80%. Also, the pest or weed control at 500 g/ha in the test with Spodoptera frugiperda is 83%. Besides, the mortality at 100 mg/m2 in test [1], in test [2] and in [3] was 80 to 100% throughout. Besides, in test [3], the mortality at 20 mg/m2 is 80 to 100%.
As to `CCOc1nc(COc2cccc3c(Cl)c(Cl)ccc23)ccc1OCCN(C)OC` [Example 97, 2-[(6-{[(5,6-dichloro-1-naphthyl)oxy]methyl}-2-ethoxypyridin-3-yl)oxy]-N-methoxy-N-methylethanamine], the mortality at 20 mg/m2 in [3] (setting [9]) lay within 80 to 100%.
